Several values for one entry are separate records, joined by “and”; a condition that tells them apart may be missing. Equal entries are not always repeated.
Columns and labels:
[1] = PAVO Part 3: serum daratumumab concentration, pre-dose Cycle 3 Day 1; format: in vivo, human; settings: Cycle 3 Day 1 pre-dose
[2] = test system: patients with RRMM; experiment: PAVO Part 3: infusion-related reactions (IRRs)
Procedure: Safety was assessed, with an emphasis on IRRs, while corticosteroids were reduced and discontinued.
The purpose of Part 3 was to evaluate the safety of daratumumab 1,800 mg SC delivery without predose and postdose corticosteroids after a 3-week, 2-week, and 1-week tapering schedule to assess the safety of corticosteroid-free SC daratumumab administration. […] In conjunction, patients also received a 3-week, 2-week, or 1-week steroid tapering schedule (FIG. 2). The 3-week tapering schedule (corticosteroid-free by Cycle 1 Day 22) consisted of methylprednisolone (MP) given orally (PO)/IV pre-dose (Cycle 1 Day 1, 100 mg; Cycle 1 Day 8, 60 mg; Cycle 1 Day 15, 30 mg) and PO post-dose (Cycle 1 Day 1, 20 mg for 2 days; Cycle 1 Day 8, 20 mg for 1 day; Cycle 1 Day 15, 20 mg for 1 day). The 2-week tapering schedule (corticosteroid-free by Cycle 1 Day 15) consisted of MP given PO/IV pre-dose (Cycle 1 Day 1, 100 mg; Cycle 1 Day 8, 60 mg) and PO post-dose (Cycle 1 Day 1, 20 mg for 2 days; Cycle 1 Day 8, 20 mg for 1 day). The 1-week tapering schedule (corticosteroid-free by Cycle 1 Day 8) consisted of dexamethasone 20 mg administered IV pre-dose on Cycle 1 Day 1, without post-dose administration.
The 3-week, 2-week and 1-week steroid tapering schedules were assessed by “3+3” design, followed by cohort expansion to approximately 15 patients (3-week and 2-week tapering cohorts) or 12 patients (1-week tapering cohort). The dose-limiting toxicity (DLT) assessment period in the 3-week, 2-week and 1-week tapering cohorts were Cycle 1 Day 1 through Cycle 2 Day 4, Cycle 1 Day 1 through Cycle 1 Day 25, and Cycle 1 Day 1 through Cycle 1 Day 11, respectively. […] Grade 3 or 4 IRRs only qualified as DLTs if they occurred during corticosteroid reduction or discontinuation (not during Cycle 1 Day 1). For the 3-week and 2-week groups, IRRs reported at Cycle 1 Day 1 were not considered DLTs, as corticosteroids had not yet been reduced or discontinued. Up to approximately 12 patients could be enrolled in the 1-week tapering schedule to assess safety, including IRRs.
Safety assessments included treatment-emergent adverse events (TEAEs), serious adverse events, and IRRs. All toxicities were graded according to the National Cancer Institute's Common Terminology for the Classification of Adverse Events (NCI-CTCAE) Version 4.03 (National Cancer Institute. Common Terminology Criteria for Adverse Events (CTCAE): Version 4.03.).

[3] = test system: patients with RRMM; experiment: PAVO Part 3: efficacy by IMWG response criteria; format: in vivo, human
Procedure: The primary endpoint was safety of pre- and post-dose steroid tapering. Key secondary endpoints included the overall response rate (ORR) and the rate of complete response (CR).
For the evaluation of efficacy, responses were assessed according to International Myeloma Working Group (IMWG) consensus recommendations (Durie et al., Leukemia 20(9):1467-73 (2006); Rajkumar et al., Blood 117(18):4691-95 (2011)). Disease evaluations were performed by a central laboratory.
In PAVO Part 3, no formal statistical hypothesis testing was performed. Data were summarized descriptively. Continuous variables were summarized using the number of observations, mean and standard deviation (SD), coefficient of variation, median and range as appropriate. Categorical variables were summarized using the number of observations and percentages as appropriate. Duration of response and PFS were estimated using Kaplan-Meier methods.

For “DARA SC: 1,800 mg daratumumab co-formulated with 30,000 U rHuPH20 (2,000 U/mL, 15 mL), manual subcutaneous injection”, the “Mean (SD) daratumumab serum concentration” value ([1]; 1-week taper) was 706 (270) μg/mL and 706 μg/mL, the “Mean (SD) daratumumab serum concentration” value ([1]; 2-week taper) was 731 (382) μg/mL and 731 μg/mL and the “Mean (SD) daratumumab serum concentration” value ([1]; 3-week taper) was 604 (280) μg/mL and 604 μg/mL. The “Mean (SD) daratumumab serum concentration” value ([1]; total PK-evaluable n=37) was 676 (314) μg/mL, the “Patients with an IRR” value ([2]; 1-week taper) was 2 (16.7%) n (%) and the “Patients with an IRR” value ([2]; 2-week taper) was 3 (20.0%) n (%). For the same substance, the “Patients with an IRR” value ([2]; 3-week taper) was 0 (0%) n (%), the “Grade 4 IRRs” value ([2]; Total n=42) was “no grade 4 IRRs reported” and the “IRR of increased blood pressure” value ([2]; Total n=42) was 1 (2.4%) n (%). The “IRR of oropharyngeal pain” value ([2]; Total n=42) was 1 (2.4%) n (%), the IRR of tachycardia ([2]; Total n=42) was 1 (2.4%) n (%) and the “IRRs meeting the definition of a DLT” value ([2]; Total n=42) was “None of the IRRs met the definition of a DLT”. For the same substance, the “Patients with an IRR” value ([2]; Total n=42) was 5 (11.9%) n (%), the “Number of grade 3 IRRs” value ([2]; increased blood pressure, 2-week taper, resolved on day of onset) was 1 and the “9-month duration of response rate” value ([3]; 1-week taper) was 100%. For the same substance, the “Estimated 9-month PFS rate” value ([3]; 1-week taper) was 46.7%, the “Median PFS” value ([3]; 1-week taper) was 7.4 months and the “Median duration of response” value ([3]; 1-week taper) was “not reached”. For the same substance, the “Median time to best response” value ([3]; 1-week taper) was 1.0 months, the “Patients achieving ≥CR” value ([3]; 1-week taper) was 1 (8.3%) n (%) and the “Patients achieving ≥VGPR” value ([3]; 1-week taper) was 2 (16.7%) n (%). For the same substance, the “Rate of very good partial response or better” value ([3]; 1-week taper) was 16.7%, the “Overall response rate (ORR)” value ([3]; 1-week taper, median follow-up 8.3 months) was 41.7% and the “9-month duration of response rate” value ([3]; 2-week taper) was 83.3%. For the same substance, the “Estimated 9-month PFS rate” value ([3]; 2-week taper) was 36.1%, the “Median PFS” value ([3]; 2-week taper) was 4.7 months and the “Median duration of response” value ([3]; 2-week taper) was 16.7 months. The “Median time to best response” value ([3]; 2-week taper) was 1.9 months, the “Patients achieving ≥CR” value ([3]; 2-week taper) was “no patient” and the “Patients achieving ≥VGPR” value ([3]; 2-week taper) was 5 (33.3%) n (%). For the same substance, the “Rate of very good partial response or better” value ([3]; 2-week taper) was 33.3%, the “Overall response rate (ORR)” value ([3]; 2-week taper, median follow-up 11.1 months) was 40.0% and the “9-month duration of response rate” value ([3]; 3-week taper) was 83.3%. For the same substance, the “Estimated 9-month PFS rate” value ([3]; 3-week taper) was 40.0%, the “Median PFS” value ([3]; 3-week taper) was 5.9 months and the “Median duration of response” value ([3]; 3-week taper) was “not reached”. For the same substance, the “Median time to best response” value ([3]; 3-week taper) was 1.5 months, the “Patients achieving ≥CR” value ([3]; 3-week taper) was 1 (6.7%) n (%) and the “Patients achieving ≥VGPR” value ([3]; 3-week taper) was 3 (20.0%) n (%). For the same substance, the “Rate of very good partial response or better” value ([3]; 3-week taper) was 20.0%, the “Overall response rate (ORR)” value ([3]; 3-week taper, median follow-up 9.2 months) was 40.0% and the “Patients achieving ≥CR” value ([3]; Total n=42) was 2 (4.8% (95% CI: 0.6%, 16.2%)) n (%). The “Patients achieving ≥VGPR” value ([3]; Total n=42) was 10 (23.8% (95% CI: 12.1%, 39.5%)) n (%), the “Overall response rate (ORR)” value ([3]; Total n=42, median follow-up 8.3 months) was 40.5% and the “Estimated 9-month PFS rate” value ([3]; all treated N=42) was 40.7%. For the same substance, the “Median PFS” value ([3]; all treated N=42) was 5.9 months, the “Median time to best response” value ([3]; responders n=17) was 1.1 months and the “Median time to first response” value ([3]; responders n=17) was 1.0 months.
